Data: patent US11077036B2, “Lactam solubility” (Conopco, Inc., priority 2015, dated 2021)

Test: Lactam solubility in water or water + ethyl lactate (48 hours agitation, filtration, HPLC quantification)
Type: physicochemical
Details: for Mean Lactam Level in Solution: 48 hours agitation
Protocol: The following example uses, without limitation, 4-(4-chlorophenyl)-5-methylene-pyrrol-2-one and ethyl lactate.
Excess solid lactam (˜3 mg) was placed in a Whatman® Mini Uniprep sample vial, fitted with a 0.45 μm nylon filter. Water or water+ethyl lactate (500 μL) was added the mixture shaken and tapped briefly to initially disperse the solid and the mixture then agitated for 48 hours using a plate shaker fitted with a vial holder (see image below). After 48 hours, the solid was removed from the system by pressing down the plunger with integral filter on the vial (see image below). This removes the solid and provides filtered solution within the inner chamber which is then ready for analysis.
The level of lactam dissolved in solution was quantified using HPLC analysis. Samples were analysed on an Agilent 1200® series HPLC fitted with a Thermo Hypersil® Gold C18 column (15×2.1×3 μm), isocratic elution with 60/40 methanol/water (+0.1% Formic Acid), 0.4 mL/min flow rate, using a DAD detector at 285 nm. 4-(4-chlorophenyl)-5-methylene-pyrrol-2-one has a retention time of ˜2.8 minutes.
The absolute level of lactam in solution is measured and reported as an increase in solubility of lactam relative to water alone.

[1] = 0 % ethyl lactate in water (water alone)

Solubility Increase vs water alone [1]: 1.00
Mean Lactam Level in Solution [1]: 5.7 ppm
Solubility Increase vs water alone (0.5 % ethyl lactate in water): 1.21
Mean Lactam Level in Solution (0.5 % ethyl lactate in water): 6.9 ppm
Solubility Increase vs water alone (1 % ethyl lactate in water): 1.21
Mean Lactam Level in Solution (1 % ethyl lactate in water): 6.9 ppm
Solubility Increase vs water alone (2 % ethyl lactate in water): 1.99
Mean Lactam Level in Solution (2 % ethyl lactate in water): 11.3 ppm
Solubility Increase vs water alone (5 % ethyl lactate in water): 4.63
Mean Lactam Level in Solution (5 % ethyl lactate in water): 26.4 ppm
Solubility Increase vs water alone (10 % ethyl lactate in water): 10.57
Mean Lactam Level in Solution (10 % ethyl lactate in water): 60.2 ppm
SMILES: C=C1NC(=O)C=C1c1ccc(Cl)cc1 [4-(4-chlorophenyl)-5-methylene-pyrrol-2-one]
